Test results reported in PubChem BioAssay (NCI).
Where “and” joins values, the source holds several entries; their conditions need not be identical. Equal entries are not always repeated.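 How tested: cells in 96-well plates exposed to compound for 48 hours at five concentrations. Here, GI50 denotes the concentration required for 50% inhibition of growth. At the TGI there is no net growth.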 Non-standard residues stand in square brackets, D forms with d. Residues, ends and D or L forms follow the SMILES beside them. ξ: configuration not given here. Pen = CC(C)(S)[C@H](N)C(=O)O; ξL = CC(C)CC(N)C(=O)O

Experiments:
Assay in all cases: NCI tumour cell line growth inhibition, 48 h
786-0 renal = system: 786-0 renal
A498 renal = system: A498 renal
A549 NSCLC = system: A549 NSCLC
ACHN renal = system: ACHN renal
CAKI-1 renal = system: CAKI-1 renal
CCRF-CEM leukemia = system: CCRF-CEM leukemia
COLO 205 colon = system: COLO 205 colon
DLD-1 colon = system: DLD-1 colon
DMS 114 small cell lung = system: DMS 114 small cell lung
DMS 273 small cell lung = system: DMS 273 small cell lung
EKVX NSCLC = system: EKVX NSCLC
HCC-2998 colon = system: HCC-2998 colon
HL-60(TB) leukemia = system: HL-60(TB) leukemia
HOP-62 NSCLC = system: HOP-62 NSCLC
HOP-92 NSCLC = system: HOP-92 NSCLC
HT29 colon = system: HT29 colon
IGROV1 ovarian = system: IGROV1 ovarian
K-562 leukemia = system: K-562 leukemia
KM12 colon = system: KM12 colon
KM20L2 colon = system: KM20L2 colon
LOX IMVI melanoma = system: LOX IMVI melanoma
LXFL 529 NSCLC = system: LXFL 529 NSCLC
M14 melanoma = system: M14 melanoma
M19-MEL melanoma = system: M19-MEL melanoma
MALME-3M melanoma = system: MALME-3M melanoma
MOLT-4 leukemia = system: MOLT-4 leukemia
NCI-H23 lung = system: NCI-H23 lung
NCI-H460 lung = system: NCI-H460 lung
NCI-H522 lung = system: NCI-H522 lung
OVCAR-3 ovarian = system: OVCAR-3 ovarian
OVCAR-4 ovarian = system: OVCAR-4 ovarian
OVCAR-5 ovarian = system: OVCAR-5 ovarian
OVCAR-8 ovarian = system: OVCAR-8 ovarian
RPMI-8226 leukemia = system: RPMI-8226 leukemia
RXF 393 renal = system: RXF 393 renal
RXF-631 renal = system: RXF-631 renal
SF-268 CNS = system: SF-268 CNS
SF-295 CNS = system: SF-295 CNS
SF-539 CNS = system: SF-539 CNS
SK-MEL-2 melanoma = system: SK-MEL-2 melanoma
SK-MEL-28 melanoma = system: SK-MEL-28 melanoma
SK-MEL-5 melanoma = system: SK-MEL-5 melanoma
SK-OV-3 ovarian = system: SK-OV-3 ovarian
SN12C renal = system: SN12C renal
SNB-19 CNS = system: SNB-19 CNS
SNB-75 CNS = system: SNB-75 CNS
SNB-78 CNS = system: SNB-78 CNS
SW-620 colon = system: SW-620 colon
TK-10 renal = system: TK-10 renal
U251 CNS = system: U251 CNS
UACC-257 melanoma = system: UACC-257 melanoma
UACC-62 melanoma = system: UACC-62 melanoma
UO-31 renal = system: UO-31 renal
XF 498 CNS = system: XF 498 CNS
HCT-116 colon = system: HCT-116 colon
HCT-15 colon = system: HCT-15 colon
HOP-18 NSCLC = system: HOP-18 NSCLC
NCI-H226 lung = system: NCI-H226 lung
SR leukemia = system: SR leukemia
P388 leukemia = system: P388 leukemia
P388/ADR leukemia = system: P388/ADR leukemia
SN12K1 renal = system: SN12K1 renal
BT-549 breast = system: BT-549 breast
DU-145 prostate = system: DU-145 prostate
HS 578T breast = system: HS 578T breast
MDA-MB-231 breast = system: MDA-MB-231 breast
MDA-MB-435 = system: MDA-MB-435
MDA-N = system: MDA-N
PC-3 prostate = system: PC-3 prostate
T-47D breast = system: T-47D breast

In the case of `[N-]=[N+]=NC1C(Cl)C(=O)NC(=O)N1[C@H]1C[C@H](O)[C@@H](CO)O1` (stereo not given in full), the TGI (786-0 renal) was over 100 µM, the TGI (A498 renal) was over 100 µM and the TGI (A549 NSCLC) was over 100 µM. For the same compound, the TGI (ACHN renal) was over 100 µM, the TGI (CAKI-1 renal) was over 100 µM and the GI50 (CCRF-CEM leukemia) was 26.3 µM. For the same compound, the TGI (CCRF-CEM leukemia) was over 100 µM, the TGI (COLO 205 colon) was over 100 µM and the TGI (DLD-1 colon) was over 100 µM. For the same compound, the TGI (DMS 114 small cell lung) was over 100 µM, the TGI (DMS 273 small cell lung) was over 100 µM and the TGI (EKVX NSCLC) was over 100 µM. It also gave a TGI (HCC-2998 colon) of over 100 µM, a TGI (HL-60(TB) leukemia) of over 100 µM and a TGI (HOP-62 NSCLC) of over 100 µM. It also gave a TGI (HOP-92 NSCLC) of over 100 µM, a TGI (HT29 colon) of over 100 µM and a TGI (IGROV1 ovarian) of over 100 µM. It also gave a TGI (K-562 leukemia) of over 100 µM, a TGI (KM12 colon) of over 100 µM and a TGI (KM20L2 colon) of over 100 µM. The TGI (LOX IMVI melanoma) was over 100 µM, the TGI (LXFL 529 NSCLC) was over 100 µM and the TGI (M14 melanoma) was over 100 µM. It also gave a GI50 (M19-MEL melanoma) of 52.1 µM, a TGI (M19-MEL melanoma) of over 100 µM and a TGI (MALME-3M melanoma) of over 100 µM. For the same compound, the TGI (MOLT-4 leukemia) was over 100 µM, the TGI (NCI-H23 lung) was over 100 µM and the TGI (NCI-H460 lung) was over 100 µM. For the same compound, the GI50 (NCI-H522 lung) was 5.31 µM, the TGI (NCI-H522 lung) was 36.2 µM and the TGI (OVCAR-3 ovarian) was over 100 µM. It also gave a TGI (OVCAR-4 ovarian) of over 100 µM, a TGI (OVCAR-5 ovarian) of over 100 µM and a TGI (OVCAR-8 ovarian) of over 100 µM. For the same compound, the GI50 (RPMI-8226 leukemia) was 71.9 µM, the TGI (RPMI-8226 leukemia) was over 100 µM and the TGI (RXF 393 renal) was over 100 µM. It also gave a TGI (RXF-631 renal) of over 100 µM, a GI50 (SF-268 CNS) of 94 µM and a TGI (SF-268 CNS) of over 100 µM. The TGI (SF-295 CNS) was over 100 µM, the TGI (SF-539 CNS) was over 100 µM and the TGI (SK-MEL-2 melanoma) was over 100 µM. It also gave a TGI (SK-MEL-28 melanoma) of over 100 µM, a GI50 (SK-MEL-5 melanoma) of 12.3 µM and a TGI (SK-MEL-5 melanoma) of over 100 µM. The TGI (SK-OV-3 ovarian) was over 100 µM, the TGI (SN12C renal) was over 100 µM and the TGI (SNB-19 CNS) was over 100 µM. It also gave a TGI (SNB-75 CNS) of over 100 µM, a TGI (SNB-78 CNS) of over 100 µM and a TGI (SW-620 colon) of over 100 µM. It also gave a TGI (TK-10 renal) of over 100 µM, a TGI (U251 CNS) of over 100 µM and a TGI (UACC-257 melanoma) of over 100 µM. The TGI (UACC-62 melanoma) was over 100 µM, the TGI (UO-31 renal) was over 100 µM and the TGI (XF 498 CNS) was over 100 µM.
`O=[N+]([O-])c1ccc(Cl)c(C2CC(c3cccc4ccccc34)=Nc3ccccc3S2=O)c1` (stereo not given) gave a TGI (786-0 renal) of 28.5 µM, a TGI (A498 renal) of 64.7 µM and a TGI (A549 NSCLC) of over 100 µM. It also gave a TGI (ACHN renal) of 52.9 µM, a TGI (CAKI-1 renal) of over 69.8 µM and a TGI (CCRF-CEM leukemia) of 11.1 µM. It also gave a TGI (COLO 205 colon) of 97.7 µM, a TGI (DLD-1 colon) of 26.1 µM and a TGI (DMS 114 small cell lung) of 41.1 µM. It also gave a TGI (DMS 273 small cell lung) of over 100 µM, a TGI (EKVX NSCLC) of over 100 µM and a TGI (HCC-2998 colon) of over 50.3 µM. The TGI (HCT-116 colon) was 35.1 µM, the TGI (HCT-15 colon) was over 100 µM and the TGI (HL-60(TB) leukemia) was 34.1 µM. For the same compound, the TGI (HOP-18 NSCLC) was over 100 µM, the TGI (HOP-62 NSCLC) was over 62.6 µM and the TGI (HOP-92 NSCLC) was 22.8 µM. The TGI (HT29 colon) was 37.9 µM, the TGI (IGROV1 ovarian) was over 85.1 µM and the TGI (K-562 leukemia) was 37 µM. It also gave a TGI (KM12 colon) of over 100 µM, a TGI (KM20L2 colon) of over 63.6 µM and a TGI (LOX IMVI melanoma) of over 31.6 µM. For the same compound, the TGI (LXFL 529 NSCLC) was 52.8 µM, the TGI (M14 melanoma) was 59.7 µM and the TGI (M19-MEL melanoma) was over 62.7 µM. It also gave a TGI (MALME-3M melanoma) of 42.5 µM, a TGI (MOLT-4 leukemia) of 62.8 µM and a TGI (NCI-H226 lung) of over 54.5 µM. It also gave a TGI (NCI-H23 lung) of 17.4 µM, a TGI (NCI-H460 lung) of over 76.4 µM and a TGI (OVCAR-3 ovarian) of 83.4 µM. It also gave a TGI (OVCAR-4 ovarian) of over 84.2 µM, a TGI (OVCAR-5 ovarian) of 76.1 µM and a TGI (OVCAR-8 ovarian) of 20.8 µM. It also gave a TGI (RPMI-8226 leukemia) of 7.7 µM, a TGI (RXF 393 renal) of 21.1 µM and a TGI (RXF-631 renal) of over 100 µM. It also gave a TGI (SF-268 CNS) of over 100 µM, a TGI (SF-295 CNS) of 61 µM and a TGI (SF-539 CNS) of 19.1 µM. The TGI (SK-MEL-2 melanoma) was 37.4 µM, the TGI (SK-MEL-28 melanoma) was 42.8 µM and the TGI (SK-MEL-5 melanoma) was 40 µM. For the same compound, the TGI (SK-OV-3 ovarian) was over 100 µM, the TGI (SN12C renal) was over 60.4 µM and the TGI (SNB-19 CNS) was over 53.8 µM. It also gave a TGI (SNB-75 CNS) of over 100 µM, a TGI (SNB-78 CNS) of 38.9 µM and a TGI (SR leukemia) of 93.1 µM. The TGI (SW-620 colon) was 33.5 µM, the TGI (TK-10 renal) was 98.2 µM and the TGI (U251 CNS) was 20.2 µM. It also gave a TGI (UACC-257 melanoma) of over 86.4 µM, a TGI (UACC-62 melanoma) of 40.8 µM and a TGI (UO-31 renal) of over 46.7 µM.
For `CSCC[C@H](NC(=O)C(CC(C)C)NC(=O)[C@H](Cc1c[nH]cn1)NC(=O)CNC(=O)[C@@H](NC(=O)[C@@H](C)NC(=O)[C@H](Cc1c[nH]c2ccccc12)NC(=O)[C@H](CCC(N)=O)NC(=O)[C@@H](N)CC(N)=O)C(C)(C)SC)C(N)=O` (stereo not given in full) (H-NQW[dA][Pen](Me)GH[ξL]M-NH2), the TGI (DLD-1 colon) was over 100 µM, the TGI (DMS 114 small cell lung) was over 100 µM and the TGI (DMS 273 small cell lung) was over 100 µM. It also gave a TGI (HOP-18 NSCLC) of over 100 µM, a TGI (HOP-92 NSCLC) of over 100 µM and a TGI (KM20L2 colon) of over 100 µM. It also gave a TGI (M19-MEL melanoma) of over 100 µM, a TGI (NCI-H226 lung) of over 100 µM and a TGI (NCI-H23 lung) of over 100 µM. For the same compound, the TGI (P388 leukemia) was over 100 µM, the TGI (P388/ADR leukemia) was over 100 µM and the TGI (SN12K1 renal) was over 100 µM. The TGI (SNB-78 CNS) was over 100 µM, the TGI (UACC-257 melanoma) was over 100 µM and the TGI (XF 498 CNS) was over 100 µM.
For `COc1cccc2c1C(=O)c1c(O)c3c(c(O)c1C2=O)C[C@@](O)(C(=O)CO)C[C@@H]3OC1CC(N2CCOCC2)C(O)C(C)O1` (stereo not given in full), the GI50 (786-0 renal) was under 0.0131 µM, the TGI (786-0 renal) was 0.611 µM and the TGI (A498 renal) was 0.0232 µM and 0.0486 µM and 0.00651 µM. The GI50 (ACHN renal) was 0.00841 µM, the TGI (ACHN renal) was 0.0736 µM and the TGI (BT-549 breast) was 0.392 µM. It also gave a TGI (DU-145 prostate) of 3.37 µM, a TGI (HS 578T breast) of 0.228 µM and a TGI (M14 melanoma) of 0.149 µM. It also gave a TGI (MDA-MB-231 breast) of 0.433 µM, a TGI (MDA-MB-435) of 0.195 µM and a TGI (MDA-N) of 0.175 µM. For the same compound, the TGI (NCI-H226 lung) was 0.00866 µM and 0.0283 µM and 0.00455 µM, the GI50 (P388/ADR leukemia) was 0.0025 µM and the TGI (PC-3 prostate) was 0.241 µM. The GI50 (SR leukemia) was 0.00553 µM, the TGI (T-47D breast) was 1.06 µM and the TGI (TK-10 renal) was 2.07 µM.
